Read-outs that look alike come from different tables or passages of the source. Bridge positions count the residues as written; N and C are the ends. Peptide text beside a SMILES is read from it.

Assay [1] concerns the target T1, biotinylated human β-FXIIa (Homo sapiens, UniProt P00748).
T1 construct: purchased Molecular Innovations
Nature of the assay: Surface plasmon resonance binding to FXIIa. As to the method:
Binding kinetics of each peptide towards biotinylated human β-FXIIa (Molecular Innovations) and non-labelled zymogen FXII (Haematologic Technologies) were determined using a Biacore T200 machine (Cytiva). For β-FXIIa binding measurements, the running buffer was HBS-EP+(10 mM HEPES, 150 mM NaCl, 3 mM EDTA and 0.05% (v/v) surfactant P20, pH 7.4). Biotinylated β-FXIIa was immobilized on a Sensor Chip CAP (Cytiva) using Biotin CAPture Reagent (Cytiva). A series of concentrations of each peptide were injected as analyte and the binding kinetics were modelled using a 1:1 binding model. Regeneration of sensor surface was performed after each measurement cycle. For FXII binding measurements, the running buffer was PBST (137 mM NaCl, 2.7 mM KCl, 10 mM Na2HPO4, 1.8 mM KH2PO4, 0.05% Tween-20). Non-labelled FXII was immobilized on a Sensor Chip CM5 (Cytiva) using Amine Coupling Kit (Cytiva), achieving a final immobilization level of 2500 RU. Each peptide was flowed through immobilized FXII at 5 μM for 60 s and allowed dissociation for 150 s.
In general terms: SPR reads the build-up and loss of mass on a sensor chip optically.

Assay [2] has as its target T2, bovine trypsin (Bos taurus, UniProt P00760).
T2 sequence (P00760 24-246): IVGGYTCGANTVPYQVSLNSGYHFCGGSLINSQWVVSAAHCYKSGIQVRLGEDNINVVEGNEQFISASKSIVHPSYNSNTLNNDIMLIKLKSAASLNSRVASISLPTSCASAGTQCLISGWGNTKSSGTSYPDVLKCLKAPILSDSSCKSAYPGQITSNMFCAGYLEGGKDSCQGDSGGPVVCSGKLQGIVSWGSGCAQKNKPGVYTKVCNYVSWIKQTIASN
The experiment in a line: Surface plasmon resonance binding to trypsin.

For assay [3], the target named is T3, Human β-FXIIa (Homo sapiens, UniProt P00748).
T3 construct: Human β-FXIIa was obtained from Molecular Innovations, together with human FXa, human FXIa, human α-thrombin, and human plasma kallikrein; purchased Molecular Innovations; host or cells: purified from human plasma
T3 sequence (P00748 373-615 limits assumed, other chains not shown): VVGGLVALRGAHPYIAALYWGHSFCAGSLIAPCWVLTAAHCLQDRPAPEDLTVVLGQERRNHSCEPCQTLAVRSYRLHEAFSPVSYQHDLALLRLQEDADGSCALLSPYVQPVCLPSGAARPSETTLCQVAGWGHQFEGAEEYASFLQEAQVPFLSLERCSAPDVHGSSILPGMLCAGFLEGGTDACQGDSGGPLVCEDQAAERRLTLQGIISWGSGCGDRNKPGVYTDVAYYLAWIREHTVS
The experiment in a line: FXIIa competitive inhibition assay, colorimetric substrate Ac-QRFR-pNA. Format: biochemical. The procedure:
The activity of acyclic and cyclic MCoFx1-5 and analogues thereof was assessed in competitive inhibition assays, as previously described in Swedberg et al. (2016) J Med Chem, 59: 7287-7292. Human β-FXIIa was obtained from Molecular Innovations, together with human FXa, human FXIa, human α-thrombin, and human plasma kallikrein. Human cationic trypsin and human plasmin were obtained from Sigma-Aldrich, and recombinant human matriptase was sourced from R&D Systems. Recombinant human urokinase (uPA) and recombinant human tissue plasminogen activator (tPA) were expressed in Expi293 cells, as previously described in Li et al. (2019) Chembiochem, 20: 46-50. FXIIa inhibition assays were performed in clear, low-binding 96-well plates using 250 μL (final volume) of assay buffer (0.1 M Tris-HCl pH 8.0, 0.1 M NaCl, 10 mM CaCl2 and 0.005% Triton X-100). Inhibitors were serially diluted and incubated with 10 nM FXIIa at room temperature to reach equilibrium. After adding 100 μM Ac-QRFR-pNA substrate (KM=162 μM), enzymatic activity was measured by monitoring release of the pNA moiety using a TECAN infinite M1000 Pro plate reader (A=405 nm, reading interval, 10 s; assay time course, 7 min). Assays were conducted in three times in duplicate. Substrate kinetic constants (Michaelis-Menten) and inhibition constants (Morrison K) were determined by non-linear regression using Prism 7 (GraphPad). Selectivity assays with off-target proteases were performed in a similar way, except that different concentrations of enzyme and substrate were used, as indicated in Table 16. For assays using a fluorescent substrate (peptide-4-methylcoumaryl-7-amide, MCA), black low-binding 96-well plates were used and activity was measured using a TECAN infinite M1000 pro plate reader (λex 360 nm, λem 460 nm, reading interval, 30 s; assay time course, 5-30 min).

Where [4] appears, read: Table 8, cyclic form, read-out: KD (nM) Trypsin Cyclic.
Setting [5] is: Table 7, FXIIa, cyclic form of the peptide, read-out: Ki (nM) Cyclic.
[6] abbreviates: Table 8, cyclic form, read-out: KD (nM) FXIIa Cyclic.

T1 sequence (P00748 373-615 limits assumed, other chains not shown): as above

`CC[C@H](C)[C@H](NC(=O)CNC(=O)CNC(=O)[C@@H](N)CC(=O)O)C(=O)N[C@H]1CSSC[C@@H]2NC(=O)[C@H](C)NC(=O)CNC(=O)[C@@H]3CCCN3C(=O)[C@@H]3CSSC[C@@H](C(=O)NCC(=O)N[C@@H](CO)C(=O)NCC(=O)N[C@@H](CO)C(=O)O)NC(=O)[C@H](Cc4ccc(O)cc4)NC(=O)[C@H]([C@@H](C)O)NC(=O)[C@H](CCCNC(=N)N)NC(=O)[C@H](CCCNC(=N)N)NC(=O)[C@H]([C@@H](C)CC)NC(=O)[C@H](CSSC[C@H](NC(=O)[C@H](Cc4ccc(O)cc4)NC(=O)[C@H](C(C)C)NC(=O)[C@H](CC(C)C)NC(=O)[C@H]([C@@H](C)CC)NC(=O)[C@H](CCCNC(=N)N)NC(=O)[C@@H]4CCCN4C1=O)C(=O)N[C@@H](CCCNC(=N)N)C(=O)N[C@@H](CCCNC(=N)N)C(=O)N[C@@H](CC(=O)O)C(=O)N[C@@H](CO)C(=O)N[C@@H](CC(=O)O)C(=O)N3)NC(=O)[C@H]([C@@H](C)CC)NC2=O` [MCoFx2 acyclic] (H-DGGICPRILVYCRRDSDCPGACICIRRTYCGSGS-OH; disulfide 5-22, 12-24, 18-30): the Kd is 45.4 ± 2.9 nM in assay [1] and under 0.1 nM in assay [2]. The same molecule came in with a Ki in assay [3] of 73 ± 3 nM.
In the case of `CC[C@H](C)[C@@H]1NC(=O)CNC(=O)CNC(=O)[C@H](CC(=O)O)NC(=O)[C@H](CO)NC(=O)CNC(=O)[C@H](CO)NC(=O)CNC(=O)[C@@H]2CSSC[C@@H]3NC(=O)[C@H](CC(=O)O)NC(=O)[C@H](CO)NC(=O)[C@H](CC(=O)O)NC(=O)[C@H](CCCNC(=N)N)NC(=O)[C@H](CCCNC(=N)N)NC(=O)[C@@H]4CSSC[C@H](NC(=O)[C@H]([C@@H](C)CC)NC(=O)[C@H](CSSC[C@H](NC1=O)C(=O)N1CCC[C@H]1C(=O)N[C@@H](CCCNC(=N)N)C(=O)N[C@@H]([C@@H](C)CC)C(=O)N[C@@H](CC(C)C)C(=O)N[C@@H](C(C)C)C(=O)N[C@@H](Cc1ccc(O)cc1)C(=O)N4)NC(=O)[C@H](C)NC(=O)CNC(=O)[C@@H]1CCCN1C3=O)C(=O)N[C@@H]([C@@H](C)CC)C(=O)N[C@@H](CCCNC(=N)N)C(=O)N[C@@H](CCCNC(=N)N)C(=O)N[C@@H]([C@@H](C)O)C(=O)N[C@@H](Cc1ccc(O)cc1)C(=O)N2` [MCoFx2 cyclic] (cyclo(ACICIRRTYCGSGSDGGICPRILVYCRRDSDCPG); disulfide 2-19, 4-26, 10-32), the Kd in assay [1] (Table 7, FXIIa, cyclic form of the peptide, read-out: KD (nM) Cyclic) was 10 nM; in assay [2] (setting [4]), under 0.1 nM. Moreover, the Ki in assay [3] (setting [5]) came out at 12 ± 0.7 nM.
Turning to `CC[C@H](C)[C@@H]1NC(=O)[C@@H]2CSSC[C@H](NC(=O)[C@H](CCCNC(=N)N)NC(=O)CNC(=O)CNC(=O)[C@@H](N)CC(=O)O)C(=O)N3CCC[C@H]3C(=O)N[C@@H](CCCNC(=N)N)C(=O)N[C@@H](CC(C)C)C(=O)N[C@@H](CC(C)C)C(=O)N[C@@H](CCCNC(=N)N)C(=O)N[C@@H](Cc3c[nH]c4ccccc34)C(=O)N[C@H]3CSSC[C@H](NC1=O)C(=O)N[C@@H](C)C(=O)N[C@@H](CCCNC(=N)N)C(=O)NCC(=O)NCC(=O)N[C@@H](CC(C)C)C(=O)N[C@H](C(=O)NCC(=O)N[C@@H](CO)C(=O)NCC(=O)N[C@@H](CO)C(=O)O)CSSC[C@H](NC(=O)[C@H](CC(=O)O)NC(=O)[C@H](CO)NC(=O)[C@H](CC(=O)O)NC(=O)[C@H](CCCNC(=N)N)NC(=O)[C@H](CCCNC(=N)N)NC3=O)C(=O)N1CCC[C@H]1C(=O)NCC(=O)N[C@@H](C)C(=O)N2` [MCoFx3 acyclic] (H-DGGRCPRLLRWCRRDSDCPGACICARGGLCGSGS-OH; disulfide 5-22, 12-24, 18-30), the values for the Kd in assay [1] and in assay [2] were 167 ± 40 nM and 2.39 nM, respectively. The molecule also returned a Ki in assay [3] of 525 ± 30 nM.
Regarding `CC[C@H](C)[C@@H]1NC(=O)[C@@H]2CSSC[C@@H]3NC(=O)[C@H](CCCNC(=N)N)NC(=O)CNC(=O)CNC(=O)[C@H](CC(=O)O)NC(=O)[C@H](CO)NC(=O)CNC(=O)[C@H](CO)NC(=O)CNC(=O)[C@@H]4CSSC[C@H](NC(=O)[C@H](CC(=O)O)NC(=O)[C@H](CO)NC(=O)[C@H](CC(=O)O)NC(=O)[C@H](CCCNC(=N)N)NC(=O)[C@H](CCCNC(=N)N)NC(=O)[C@H](CSSC[C@H](NC1=O)C(=O)N[C@@H](C)C(=O)N[C@@H](CCCNC(=N)N)C(=O)NCC(=O)NCC(=O)N[C@@H](CC(C)C)C(=O)N4)NC(=O)[C@H](Cc1c[nH]c4ccccc14)NC(=O)[C@H](CCCNC(=N)N)NC(=O)[C@H](CC(C)C)NC(=O)[C@H](CC(C)C)NC(=O)[C@H](CCCNC(=N)N)NC(=O)[C@@H]1CCCN1C3=O)C(=O)N1CCC[C@H]1C(=O)NCC(=O)N[C@@H](C)C(=O)N2` [MCoFx3 cyclic] (cyclo(ACICARGGLCGSGSDGGRCPRLLRWCRRDSDCPG); disulfide 2-19, 4-26, 10-32), the Kd in assay [1] (setting [6]) is 22.8 ± 1.6 nM; in assay [2] (setting [4]), 2.72 nM. Moreover, the inhibition constant (Ki) in assay [3] (setting [5]) was 75 ± 3 nM.
On to `CC[C@H](C)[C@@H]1NC(=O)[C@@H]2CSSC[C@H](NC(=O)[C@@H](NC(=O)CNC(=O)CNC(=O)[C@@H](N)CC(=O)O)C(C)C)C(=O)N3CCC[C@H]3C(=O)N[C@@H](CCCNC(=N)N)C(=O)N[C@@H](C(C)C)C(=O)NCC(=O)N[C@@H](Cc3c[nH]c4ccccc34)C(=O)N[C@@H](CCCNC(=N)N)C(=O)N[C@H]3CSSC[C@H](NC1=O)C(=O)N[C@@H](Cc1ccc(O)cc1)C(=O)N1CCC[C@H]1C(=O)N[C@@H]([C@@H](C)O)C(=O)N[C@@H](CCCCN)C(=O)N[C@@H](Cc1c[nH]c4ccccc14)C(=O)N[C@H](C(=O)NCC(=O)N[C@@H](CO)C(=O)NCC(=O)N[C@@H](CO)C(=O)O)CSSC[C@H](NC(=O)[C@H](CC(=O)O)NC(=O)[C@H](CO)NC(=O)[C@H](CC(=O)O)NC(=O)[C@H](CCCNC(=N)N)NC(=O)[C@H](CCCNC(=N)N)NC3=O)C(=O)N1CCC[C@H]1C(=O)NCC(=O)N[C@@H](C)C(=O)N2` [MCoFx4 acyclic] (H-DGGVCPRVGWRCRRDSDCPGACICYPTKWCGSGS-OH; disulfide 5-22, 12-24, 18-30), for which the Kd in assay [1] was 73.8 ± 6.3 nM; in assay [2], 15.1 nM. The same molecule had a Ki in assay [3] of 17 ± 0.9 nM.
With `CC[C@H](C)[C@@H]1NC(=O)[C@@H]2CSSC[C@@H]3NC(=O)[C@H](C(C)C)NC(=O)CNC(=O)CNC(=O)[C@H](CC(=O)O)NC(=O)[C@H](CO)NC(=O)CNC(=O)[C@H](CO)NC(=O)CNC(=O)[C@@H]4CSSC[C@H](NC(=O)[C@H](CC(=O)O)NC(=O)[C@H](CO)NC(=O)[C@H](CC(=O)O)NC(=O)[C@H](CCCNC(=N)N)NC(=O)[C@H](CCCNC(=N)N)NC(=O)[C@H](CSSC[C@H](NC1=O)C(=O)N[C@@H](Cc1ccc(O)cc1)C(=O)N1CCC[C@H]1C(=O)N[C@@H]([C@@H](C)O)C(=O)N[C@@H](CCCCN)C(=O)N[C@@H](Cc1c[nH]c5ccccc15)C(=O)N4)NC(=O)[C@H](CCCNC(=N)N)NC(=O)[C@H](Cc1c[nH]c4ccccc14)NC(=O)CNC(=O)[C@H](C(C)C)NC(=O)[C@H](CCCNC(=N)N)NC(=O)[C@@H]1CCCN1C3=O)C(=O)N1CCC[C@H]1C(=O)NCC(=O)N[C@@H](C)C(=O)N2` [MCoFx4 cyclic] (cyclo(ACICYPTKWCGSGSDGGVCPRVGWRCRRDSDCPG); disulfide 2-19, 4-26, 10-32), the Kd in assay [1] (setting [6]) worked out at 14.4 ± 1.1 nM; in assay [2] (setting [4]), 4.09 nM. Besides, the Ki in assay [3] (setting [5]) was 5.5 ± 0.5 nM.

Usually Kd stands for the concentration at which binding is half-saturated. As a reminder, the Ki is a dissociation constant, usually derived from enzyme kinetics or from competition with a known ligand.

The values above are taken from patent publication US20240344241A1, “PROTEINACEOUS MOLECULES AND USES THEREFOR” (THE UNIVERSITY OF QUEENSLAND, priority 2021, published 2024).
